Experimental data taken from article PMC6556873, “Rapid Covalent-Probe Discovery by Electrophile-Fragment Screening” (Journal of the American Chemical Society, 2019).
Where two headings read alike, the source gives them in different places.

Experiments:
NUDT7 = target: T1, NUDT7 (Homo sapiens, UniProt P0C024); design: Intact protein LC/MS covalent labelling, fragments in pools of five, 200 uM each, 4 °C; details: 24 h, 4 °C, pool of five; 200 µM; covalent
T1 construct: residues 14-235, E. coli, pNIC28-Bsa4, N-terminal His6 tag removed by TEV, construct 26672 Da

OTUB2 (OTUB2A) = target: T2, OTUB2 (OTUB2A) (Homo sapiens, UniProt Q96DC9); design: Intact protein LC/MS covalent labelling, fragments in pools of five, 200 uM each, 4 °C; details: 24 h, 4 °C, pool of five; 200 µM; covalent
T2 construct: full length residues 1-234, E. coli BL21(DE3)-R3, His tag removed by TEV, construct 27312 Da
T2 sequence (Q96DC9 1-234): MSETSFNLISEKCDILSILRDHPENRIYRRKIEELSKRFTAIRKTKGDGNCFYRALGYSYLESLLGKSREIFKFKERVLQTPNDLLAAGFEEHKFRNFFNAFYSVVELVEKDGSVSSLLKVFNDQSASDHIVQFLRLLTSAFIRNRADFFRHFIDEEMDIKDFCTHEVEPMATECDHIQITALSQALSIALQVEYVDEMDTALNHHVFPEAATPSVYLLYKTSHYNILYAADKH

BSA = target: T3, BSA (Bos taurus, UniProt P02769); design: Intact protein LC/MS covalent labelling, fragments in pools of five, 200 uM each, 4 °C; details: 24 h, 4 °C, pool of five; 200 µM; covalent
T3 construct: gene ALB

PCAF = target: T4, PCAF (Homo sapiens, UniProt Q92831); design: Intact protein LC/MS covalent labelling, fragments in pools of five, 200 uM each, 4 °C; details: 24 h, 4 °C, pool of five; 200 µM; covalent
T4 construct: gene KAT2B

in vitro [1] = assay: in vitro; design: species or system CCD841, HEK293; details: human, hb2 cells, read-out: HB-2 Cells Viability (%)
in vitro [2] = assay: in vitro; design: species or system HB2, HEK293; details: human, ccd841 cells
in vitro [3] = assay: in vitro; design: species or system HB2, CCD841; details: human, hek293 cells

T3 sequence (P02769 whole entry, the tested form may be a part): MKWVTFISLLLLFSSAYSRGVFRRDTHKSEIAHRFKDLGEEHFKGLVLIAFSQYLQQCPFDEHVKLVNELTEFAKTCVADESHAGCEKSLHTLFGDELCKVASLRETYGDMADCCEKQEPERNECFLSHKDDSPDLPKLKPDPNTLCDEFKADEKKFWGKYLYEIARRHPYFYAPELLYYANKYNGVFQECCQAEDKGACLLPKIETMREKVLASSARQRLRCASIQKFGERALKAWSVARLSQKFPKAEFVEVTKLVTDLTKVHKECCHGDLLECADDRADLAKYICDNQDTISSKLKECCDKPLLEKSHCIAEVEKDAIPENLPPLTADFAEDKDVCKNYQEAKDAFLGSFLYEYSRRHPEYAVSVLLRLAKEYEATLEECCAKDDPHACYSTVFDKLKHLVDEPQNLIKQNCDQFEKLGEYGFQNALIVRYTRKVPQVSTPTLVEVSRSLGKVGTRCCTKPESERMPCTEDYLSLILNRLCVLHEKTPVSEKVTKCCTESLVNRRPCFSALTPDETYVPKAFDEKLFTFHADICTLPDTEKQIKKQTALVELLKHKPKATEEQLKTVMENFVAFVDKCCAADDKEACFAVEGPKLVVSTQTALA
T4 sequence (Q92831 whole entry, the tested form may be a part): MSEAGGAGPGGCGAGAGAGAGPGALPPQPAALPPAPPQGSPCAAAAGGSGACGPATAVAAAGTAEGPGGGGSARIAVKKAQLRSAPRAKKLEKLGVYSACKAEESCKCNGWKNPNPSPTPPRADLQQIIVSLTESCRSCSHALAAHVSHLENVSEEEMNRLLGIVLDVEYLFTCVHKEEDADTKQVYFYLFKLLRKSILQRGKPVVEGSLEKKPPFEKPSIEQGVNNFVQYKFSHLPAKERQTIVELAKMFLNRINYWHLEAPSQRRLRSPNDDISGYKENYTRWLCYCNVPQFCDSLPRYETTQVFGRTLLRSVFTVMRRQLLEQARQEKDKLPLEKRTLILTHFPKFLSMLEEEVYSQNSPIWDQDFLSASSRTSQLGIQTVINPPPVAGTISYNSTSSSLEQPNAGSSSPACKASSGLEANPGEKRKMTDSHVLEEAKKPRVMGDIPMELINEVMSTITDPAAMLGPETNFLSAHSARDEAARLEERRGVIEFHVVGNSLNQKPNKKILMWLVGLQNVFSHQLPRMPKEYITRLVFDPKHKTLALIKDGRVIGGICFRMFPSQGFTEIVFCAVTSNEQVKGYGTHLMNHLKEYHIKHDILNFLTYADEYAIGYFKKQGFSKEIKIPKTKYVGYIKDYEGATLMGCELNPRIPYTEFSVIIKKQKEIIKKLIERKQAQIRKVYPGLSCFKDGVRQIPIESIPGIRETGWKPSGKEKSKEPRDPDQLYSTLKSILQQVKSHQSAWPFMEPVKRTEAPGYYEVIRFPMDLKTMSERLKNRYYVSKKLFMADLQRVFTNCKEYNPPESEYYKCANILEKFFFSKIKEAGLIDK
T1 sequence (P0C024 14-235): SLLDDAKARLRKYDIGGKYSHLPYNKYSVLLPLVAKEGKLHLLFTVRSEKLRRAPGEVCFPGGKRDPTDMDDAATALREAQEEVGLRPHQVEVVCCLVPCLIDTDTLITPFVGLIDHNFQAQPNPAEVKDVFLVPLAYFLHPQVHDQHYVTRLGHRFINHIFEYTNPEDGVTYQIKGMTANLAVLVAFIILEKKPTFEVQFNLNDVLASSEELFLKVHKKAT

| SMILES | NUDT7 (NUDT7) | OTUB2 (OTUB2 (OTUB2A)) | BSA (BSA) | PCAF (PCAF) | viability at 48 h, 10 µM (in vitro [1]) | viability at 48 h, 10 µM (in vitro [2]) | viability at 48 h, 10 µM (in vitro [3]) |
| --- | --- | --- | --- | --- | --- | --- | --- |
| C=CC(=O)N1CCC(S(=O)(=O)C(C)C)CC1 [PCM-0102637] | 0 | 0 | 0 | 0 | 98.6% | 119% | 102% |
| CN(Cc1nc2ccccc2s1)C(=O)CCl [PCM-0102988] | 0.3 | 0 | 0 | 0 | 9.3% | 42.8% | 2.9% |
| C=CC(=O)N1CCN(C)CC1 [PCM-0102634] | 0 | 0 | 0 | 0 | 99.6% | 114% | 131% |
| CC(C)N(CC(F)(F)F)C(=O)CCl [PCM-0102516] | 0 | 0 | 0 | 0 | 103% | 109% | 106% |
| C=CC(=O)N1CCN(c2nccc3sccc23)CC1 [PCM-0102715] | 0 | 0 | 0 | 0 | 97.2% | 92.1% | 78.2% |
| O=C(CCl)Nc1cc([N+](=O)[O-])ccc1F [PCM-0102544] | 0 | 0.31 | 0 | 0 | 1.6% | 2.5% | 1.8% |
| O=C(CCl)Nc1nnc(C2CC2)o1 [PCM-0102187] | 0 | 0 | 0 | 0 | 106% | 114% | 97.2% |
| Cl.O=C(CCl)Nc1ccncc1 [PCM-0102930] | 0 | 0 | 0 | 0 | 86.4% | 90.7% | 90.5% |
| N#CC1(N2CCN(C(=O)CCl)CC2)CCCCC1 [PCM-0102303] | 0 | 0.07 | 0 | 0 | 103% | 107% | 91.6% |
| C=CC(=O)NC1CCC(N2CCCS2(=O)=O)CC1 (stereo not drawn) [PCM-0102568] | 0 | 0 | 0 | 0 | 107% | 93.8% | 78% |
| CC(=O)N1CCc2cc(NC(=O)CCl)ccc21 [PCM-0102129] | 0.07 | 0.31 | 0 | 0 | 33.4% | 50.6% | 5.9% |
| Cc1c(Cl)cccc1NC(=O)CCl [PCM-0102130] | 0 | 0 | 0 | 0 | 26% | 48.1% | 4.9% |
| C=CC(=O)Nc1cccc(F)c1C [PCM-0102413] | 0 | 0 | 0 | 0 | 100% | 86% | 86.8% |
| CC(NC(=O)CCl)c1ccc2c(c1)OCCO2 (stereo not drawn) [PCM-0102342] | 0.08 | 0.57 | 0 | 0 | 93.8% | 87.2% | 73.1% |
| Cc1nc(NC(=O)CCl)sc1-c1ccccc1 [PCM-0102788] | 0.36 | 0.09 | 0 | 0 | 35.7% | 23.8% | 26.7% |
| O=C(CCl)Nc1cccc(-c2nnc3n2CCCCC3)c1 [PCM-0102181] | 0 | 0 | 0 | 0 | 51.2% | 73.2% | 39.2% |
| CC1CCc2ccccc2N1C(=O)CCl (stereo not drawn) [PCM-0102822] | 0 | 0 | 0 | 0 | 92.2% | 39.6% | 54.7% |
| O=C(CCl)Nc1ccc(N2CCCC2=O)cc1 [PCM-0102915] | 0 | 0.49 | 0 | 0 | 59.3% | 65.3% | 17.7% |
| C=CC(=O)Nc1ccc(N2CCOCC2)cc1 [PCM-0102551] | 0 | 0 | 0 | 0 | 99.9% | 113% | 82.5% |
| O=C(CCl)N1CCNC1=O [PCM-0102338] | 0 | 0 | 0 | 0 | 99.5% | 98.6% | 86.5% |
| Cc1ccc(C2=NN(C(=O)CCl)C(c3ccco3)C2)o1 (stereo not drawn) [PCM-0102102] | 0.2 | 0 | 0 | 0 | 9.4% | 12.7% | 1.6% |
| C=CC(=O)N1CCC2(CC1)NC(=O)C1(CCCCC1)N2 [PCM-0102520] | 0 | 0 | 0 | 0 | 101% | 106% | 107% |
| Cl.O=C(CCl)N1CCN(Cc2cccs2)CC1 [PCM-0102243] | 0.08 | 0 | 0 | 0 | 45.7% | 77.1% | 43.5% |
| CN(C(=O)CCl)C1(C#N)CCCCC1 [PCM-0102916] | 0 | 0 | 0 | 0 | 38% | 47.6% | 7.5% |
